The source of these data is article PMC10444817, “New proapoptotic chemotherapeutic agents based on the quinolone-3-carboxamide scaffold acting by VEGFR-2 inhibition” (Scientific Reports, 2023).

Each structure is given as a SMILES string.

The test system of data set [1] is HepG2 cells. The following applies: cited from earlier work.
The next data set concerns Bax. On the set-up: method as in Li et al. 44. Conditions: ref Li et al. 44; cited from earlier work.
The test system of data set [2] is HepG2 cells. As to the kind of experiment: MTT cytotoxicity against HepG2 tumor cell line. Conditions: read-out: Cytotoxic activity against HepG2 cell line IC50, 48 h, average of 3 independent runs ± SE.
Another data set relates to Caspase-7. Also noted: method as in Li et al. 44. The following applies: ref Li et al. 44; cited from earlier work.
The subject of data set [3] is HepG2 cells. Conditions: at its IC50 for 48 h; cited from earlier work.
Data set [4] is described as follows: MTT cytotoxicity against THLE-2 normal liver cell line. The following applies: human, THLE-2 normal liver epithelial cells; MTT, 48 h; measured in triplicates; read-out: CC50 cytotoxic activity against THLE-2 normal cell line. The class given is cell-based, human. The protocol: The produced formazan was measured by means of the spectrophotometer ROBONIK P2000 at a wavelength of 570 nm. The Cytotoxic concentration values (CC50) of the assessed compounds were reported as the mean of three independent runs ± SE[69].

The IC50 is the concentration that inhibits the measured activity by half. A word on the CC50: it is the concentration giving 50% cytotoxicity. Take `CNC(=O)c1cc(Oc2ccc(NC(=O)Nc3ccc(Cl)c(C(F)(F)F)c3)cc2)ccn1` [Sorafenib]: in the data set on HepG2 cells [1], the “Combined apoptosis, percent cell population” value was 6.37% and the “Late apoptotic phase, percent cell population” value was 4.2%. For the same molecule, the “Effect on Bax expression in HepG2 cells” value in the data set on Bax is “no significant upregulation”. For the same molecule, the concentration for half-maximal inhibition (IC50) in the data set with HepG2 cells [2] was determined as 8.38 ± 0.5 µM. The “Effect on caspase-7 expression in HepG2 cells” value in the data set on Caspase-7 is listed as “significantly upregulate the expression of caspase-7”. Also, in the data set on HepG2 cells [3], the “Effect on cell cycle kinetics of HepG2 cells” value is listed as “sequestration of cells in the PreG1 (or Sub-G1 (G0)), as well as cell growth arrest in G2/M phase”. The cytotoxic concentration (CC50) at 48 h in data set [4] was found to be 18.5 µM.
